These results are taken from US20250108213A1, “COMPOSITIONS AND METHODS FOR ENHANCING THE EFFECT OF PLATINUM-BASED SYSTEMIC THERAPY” (NOVOCURE GMBH, priority 2023, published 2025).

“Also recorded” adds a separate entry of the source.

The subject of one series is A2780cis cells. As to the kind of experiment: Cell count and overall effect (cell count x colony formation) after 72 h drug with or without TTFields. The class given is cell-based, human. Here is the method: TTFields were applied to the cells for 72 h in the absence or presence of various concentrations of carboplatin. Synergy was defined when the observed value was lower than that predicted for an additive effect (presented by the red dotted line-calculated by multiplying the observed effects for TTFields alone with that for cisplatin alone).
The Cytotoxic effect was also determined. Treated cells were counted using a flow cytometer, and cytotoxic effect was calculated relative to control cells.
Treated cells were harvested, re-plated, and grown for an additional 7-14 days. Colonies were stained (0.5% crystal violet solution), counted, and clonogenic effect was calculated relative to control. The overall effect was calculated by multiplying the cytotoxic and clonogenic effects.
TTFields application was studied. Ovarian carcinoma cells A2780cis (cisplatin resistant cells) were treated for 72 h with TTFields at an intensity of 1 V/cm RMS and a frequency of 200 kHz using the inovitro system (See FIG. 11).
TTFields were applied to the cells for 72 h in the absence or presence of various concentrations of PARPi Olaparib and Niraparib. Synergy was defined when the observed value was lower than that predicted for an additive effect (presented by the red dotted line-calculated by multiplying the observed effects for TTFields alone with that for cisplatin alone).
The cytotoxic effect was studied. Treated cells were counted using a flow cytometer, and cytotoxic effect was calculated relative to control cells.
Treated cells were harvested, re-plated, and grown for an additional 7-14 days. Colonies were stained (0.5% crystal violet solution), counted, and clonogenic effect was calculated relative to control. Overall effect was calculated by multiplying the cytotoxic and clonogenic effects.
(§1) Cells were seeded on coverslip (22 mm diameter; 20×10^3 cells/coverslip for A2780 and A2780cis; 40×10^3 cells/coverslip for OVCAR-3). After overnight incubation, the coverslips were transferred into in vitro dishes containing 2 ml of media. TTFields at a frequency of 200 kHz (and intensity of 1 V/cm RMS) were applied to the cells for 72 hr using the INOVITRO system (Novocure, Haifa, Israel).
(§2) For efficacy outcomes (cell count, overall effect, and apoptosis), various concentrations of carboplatin (MCE MedChemExpress, HY-17393), olaparib (Cayman Chemical, 10621), or niraparib (Cayman Chemical, 20842) were applied, with or without TTFields.
(§3) Cell count was examined following treatment using Cytek Northern Lights flow cytometer (Cytek Biosciences, USA).
(§4) Treated cells were harvested, re-plated in 6-well plates (500 cells/well for A2780 and A2780cis; 1000 for cells/well OVCAR-3), and grown for 7 (A2780 and A2780cis) or 21 (OVCAR-3) days. Colonies were stained with 0.5% crystal violet, quantified with ImageJ, and expressed as percentages relative to control. Overall effect was calculated by multiplying colony formation with the corresponding cell count.
(§5) The surviving fraction predicted for an additive effect between TTFields and drug was calculated per the various drug concentrations by multiplying the actual measured surviving fractions for the individual treatments one by the other (SFcalculated additive=SFTTFields×SFdrug; SF are expressed as probability). Based on the calculated values, a trendline was determined. Additivity, synergy, or antagonism was defined when the calculated additive trendline overlapped, was above, or was below the actual measured line for TTFields+drug, respectively.
For quantifying the magnitude of TTFields-drug interaction, interaction index (Ii) values were calculated by the Bliss independence method using mortality values (Mx=1−SFx). Per the various drug concentrations, mortality predicted for an additive effect between TTFields and drug (Mcalculated additive=MTTFields+Mdrug−MTTFields×Mdrug) was divided by the actual measured mortality for TTFields+drug.

Series [1] has as its system γH2AX foci in cell nuclei. As to the kind of experiment: DNA damage examination by fluorescence microscopy. Type of series: cell-based, human. The note with it: treatment alone, all cell lines (A2780, OVCAR-3, A2780cis), relative to control. Here is the method: For DNA damage and cell cycle examination, the following drug concentrations were selected: For A2780—6 μM carboplatin, 1 μM olaparib, and 0.5 μM niraparib; For OVCAR-3-16 μM carboplatin, 0.5 μM olaparib, and 0.8 μM niraparib; For A2780cis—36 μM carboplatin, 10 μM olaparib, and 1.5 μM niraparib. Treated cells were fixed with 4% paraformaldehyde for 10 min, permeabilized for 20 min with 0.5% Triton X-100 in PBS, and blocked with donkey serum (PBS with 0.3% Triton X-100 and donkey serum 1:100). Cells were incubated at 4° C. overnight with anti-γH2AX antibody (Cell Signaling, Danvers, MA, USA; #9718, 1:400), followed by incubation at room temperature for 1 hr with Alexa Flour 488-conjugated secondary antibody (Jackson Immunoresearch, Cambridge, UK; #711-545-152, 1:500) and […] 4′,6-diamidino-2-phenylindole (DAPI; Sigma Aldrich, Rehovot, Israel). LSM 700 laser scanning confocal system (Zeiss, Gottingen, Germany) was utilized to obtain images, and the mean number of foci per nucleus was determined using the FIJI software with the BioVoxxel plugin.

In the next series the test system is A2780 cells. Here is the method:
as §1, §2, §3, §4, §5
For quantifying the magnitude of TTFields-drug interaction, interaction index (Ii) values were calculated by the Bliss independence method using mortality values (Mx=1−SFx). Per the various drug concentrations, mortality predicted for an additive effect between TTFields and drug (Mcalculated additive=MTTFields+Mdrug−MTTFields×Mdrug) was divided by the actual measured mortality for TTFields+drug. Additivity was determined when the 95% confidence interval (CI) overlapped 1, synergy when 95% CI<1, and antagonism when 95% CI>1. Lower Ii values were considered indicative of higher synergy levels.

Another series has as its system G2/M cell cycle arrest. As to the kind of experiment: Cell cycle analysis (7-AAD, flow cytometer). Type of series: cell-based, human. The method, then:
For DNA damage and cell cycle examination, the following drug concentrations were selected: For A2780—6 μM carboplatin, 1 μM olaparib, and 0.5 μM niraparib; For OVCAR-3-16 μM carboplatin, 0.5 μM olaparib, and 0.8 μM niraparib; For A2780cis—36 μM carboplatin, 10 μM olaparib, and 1.5 μM niraparib. Treated cells were fixed with 70% ice-cold ethanol for 30 min, pelleted, washed, and stained for 30 min at 37° C. in phosphate buffered saline (PBS) containing 1% FBS 5 μg/ml 7-AAD (BioLegend), 200 μg/ml RNase, 1 mM EDTA and 0.1% Triton X-100. Data acquisition (at 665/30 nm) and analysis were done on the Cytek Northern Lights flow cytometer and the FlowJo 10.8.1 software (BD Biosciences), respectively.
(In general: In flow cytometry, cells or beads pass a laser one at a time.)

The test system of a further series is OVCAR-3 cells. Put plainly: Apoptosis, Annexin V/7-AAD staining, flow cytometer. The note with it: TTFields applied with drug. The class given is cell-based, human. The method, then: Apoptosis: Treated cells were double-stained with FITC-conjugated annexin V (AnnV) and 7-aminoactinomycin D (7AAD), and data acquisition was performed with a flow cytometer.
Treated cells were stained with FITC-conjugated Annexin V (AnnV) and 7-Aminoactinomycin D (7-AAD) using a commercial kit (BioLegend, San Diego, CA, USA), according to the manufacturer's instruction. Data acquisition and analysis were done on the Cytek Northern Lights flow cytometer

Setting [2] is: TTFields plus drug vs drug alone.
[3] abbreviates: TTFields plus drug vs drug alone, p<0.0001.

`O=C(c1cc(Cc2n[nH]c(=O)c3ccccc23)ccc1F)N1CCN(C(=O)C2CC2)CC1` [olaparib]: the “effect of TTFields on the drug-induced overall effect (cell count x colony formation)” value with A2780cis cells (setting [2]) and in the series with A2780 cells (setting [2]) was “significantly augmented” each time. The “effect of TTFields on the drug-induced effect, cell count” value in the series with A2780cis cells (setting [3]) and in the series with A2780 cells (setting [3]) was “significantly augmented” each time. For the same compound, the “sensitivity to drug (cell count dose response)” value in the series on A2780cis cells (drug alone, 72 h, compared among A2780, OVCAR-3, A2780cis) was “highest resistance”. Also, the “type of TTFields-drug interaction (measured vs calculated additive curve)” value is “tendency to synergy” in the series with A2780cis cells (platinum-resistant cells, TTFields 200 kHz, 1 V/cm RMS, 72 h) and “high synergy” in the series with A2780 cells (HRP cells, TTFields 200 kHz, 1 V/cm RMS, 72 h). In series [1], the “levels of γH2AX foci, monotherapy” value is reported as “mild elevation”. The “type of TTFields-drug interaction, cytotoxic effect (cell count)” value with A2780 cells is given as “synergistically”. Besides, the “level of TTFields-drug synergy” value with A2780 cells (A2780 relative to A2780cis cells, by Ii) is on record as “higher”. In addition, the “type of TTFields-drug interaction, overall effect (cell count and clonogenic effect)” value with A2780 cells (TTFields 200 kHz, 1 V/cm RMS, 72 h) is reported as “synergistically”. In the series with G2/M cell cycle arrest, the “cell cycle arrest, drug alone” value is “induced G2/M arrest”. Besides, the “effect of TTFields on the apoptotic effect / apoptotic cell fraction” value in the series with OVCAR-3 cells is listed as “enhanced; also recorded: elevation”.
